# In paper PMC8753592, “Long-acting capsid inhibitor protects macaques from repeat SHIV challenges” (Nature, 2021):
# Where “and” joins values, the source holds several entries; their conditions need not be identical. Equal entries are not always repeated.
# Experiments:
# SHIV-SF162P3 = assay: Repeated escalating-dose rectal SHIV challenge study (plasma viraemia by gag RT-qPCR); assay type: in vivo, rhesus macaques of Indian origin; settings: for Proportion of animals protected: 15 weekly rectal challenges, follow-up to week 24; for First viremic timepoint: individual infected animals
# Method: For the challenge study, 24 outbred rhesus macaques of Indian origin were assigned to the three study groups with even sex and weight distributions. All animals were housed at Alpha Genesis (Yemassee, SC), and all procedures were conducted in compliance with all relevant local, state and federal regulations and were approved by the Alpha Genesis IACUC. […] The injection sites were monitored daily by veterinary staff for 3 days. Beginning in week 1, animals in all three groups were challenged by the intrarectal route with 1 ml of RPMI containing the specified dilution of a 3.62 × 10^3 TCID50 SHIV-SF162P3 stock. At each respective time point, the challenges were performed on the same day, using the same virus stock and inoculation method across the three groups. Whole blood was collected and processed into plasma and PBMCs as necessary to assess routine haematology, clinical chemistry, viral load and serology as well as for bioanalysis of drug levels. The animals were considered to be protected if they remained SHIV negative by plasma PCR assay and seronegative by enzyme immunoassay throughout the 15-week challenge phase and the 9-week follow-up.
# RNA was extracted from rhesus macaque plasma using a QIAcube high-throughput instrument and an IndiSpin QIAcube HT Pathogen kit (Qiagen). RNA standards using the SIV gag sequence were generated by AmpliCap-Max T7 High-Yield Message Maker kit (Cell Script) and were purified using an RNA Clean and Concentrator kit (Zymo Research). Log dilutions of the RNA were included with each RT–qPCR assay. Reverse transcription of standards and samples was performed using a Superscript III VILO kit (Invitrogen). qPCR was performed using forward primer 5′-[…]-3′, reverse primer 5′-[…]-3′ and fluorescently labelled primer 5′-[…]-3′ on a Quantstudio 6 Flex system (Applied Biosystems). The assay LOD was 200 copies gag per ml.
# Protection against acquired infection was analysed using Cox proportional hazard regression models based on the exact partial likelihood for discrete time expressed in weeks, which explicitly accounts for the time-varying viral challenge dose in the model. The hazard ratios with 95% confidence intervals for per-exposure relative reductions in acquisition risk were calculated for the GS-CA1-treated groups, and the results were compared with those for the vehicle-treated control group. Comparisons were considered statistically significant at a two-sided alpha level of 0.05 (P < 0.05). Statistical analyses were performed using GraphPad Prism version 8.1.2, SAS version 9.4 and R Studio software version 4.0.5.
# CA hexamer = settings: ref Yant et al, Nat.Med, 2019;[4]; read-out: Binding Affinity (KD), CA hexamer; cited from earlier work
# CA monomer = settings: ref Yant et al, Nat.Med, 2019;[4]; read-out: Binding Affinity (KD), CA monomer; cited from earlier work
# [1] = ref Yant et al, Nat.Med, 2019;[4]; cited from earlier work
# CA pentamer = settings: ref Yant et al, Nat.Med, 2019;[4]; read-out: Binding Affinity (KD), CA pentamer; cited from earlier work
# HIV capsid = settings: ref Yant et al, Nat.Med, 2019;[4]; cited from earlier work
# [2] = ref Yant et al, Nat.Med, 2019;[4]; cited from earlier work; remark: listed apart in the source
# [3] = ref Yant et al, Nat.Med, 2019;[4], cited from earlier work
structure (smiles),measurement,setting,value
CC(C)(C#Cc1ccc(-c2ccc(Cl)c3c(NS(=O)(=O)C4CC4)nn(CC(F)F)c23)c([C@H](Cc2cc(F)cc(F)c2)NC(=O)Cn2nc(C(F)F)c3c2C(F)(F)[C@@H]2C[C@H]32)n1)S(C)(=O)=O [GS-CA1],Median weeks to viraemia (95% CI),SHIV-SF162P3; 150 mg/kg single s.c.,"16 weeks and 16 (11, –) weeks"
same,study week until which no viraemia was detected in the group,SHIV-SF162P3; 150 mg/kg single s.c.,11 week
same,per-exposure risk reduction,SHIV-SF162P3; 150 mg/kg single s.c. vs vehicle,87%
same,Proportion of animals protected,SHIV-SF162P3; 150 mg/kg single s.c.,2/8
same,First viremic timepoint,SHIV-SF162P3; 150 mg/kg,16 study week and 13 study week and 11 study week and 14 study week and 17 study week
same,Median weeks to viraemia (95% CI),SHIV-SF162P3; 300 mg/kg single s.c.,"Not reached (17, –)"
same,study week until which no viraemia was detected in the group,SHIV-SF162P3; 300 mg/kg single s.c.,17 week
same,per-exposure risk reduction,SHIV-SF162P3; 300 mg/kg single s.c. vs vehicle,97%
same,Proportion of animals protected,SHIV-SF162P3; 300 mg/kg single s.c.,5/8
same,First viremic timepoint,SHIV-SF162P3; 300 mg/kg,17 study week
same,average plasma GS-CA1 at estimated mucosal infection,"SHIV-SF162P3; 2 weeks before first detectable viraemia, nine infected treated animals",31.4 nM
same,plasma GS-CA1 at estimated mucosal infection as multiple of rhesus paEC95,"SHIV-SF162P3; 2 weeks before first detectable viraemia, range 0.4–1.6",1.0
same,Plasma SHIV viral load,"SHIV-SF162P3; GS-CA1 150mg/kg group, Week 1, individual animals",200 gag RNA copies per ml
same,Plasma SHIV viral load,"SHIV-SF162P3; GS-CA1 150mg/kg group, Week 2, individual animals",200 gag RNA copies per ml
same,Plasma SHIV viral load,"SHIV-SF162P3; GS-CA1 150mg/kg group, Week 3, individual animals",200 gag RNA copies per ml
same,Plasma SHIV viral load,"SHIV-SF162P3; GS-CA1 150mg/kg group, Week 4, individual animals",200 gag RNA copies per ml
same,Plasma SHIV viral load,"SHIV-SF162P3; GS-CA1 150mg/kg group, Week 5, individual animals",200 gag RNA copies per ml
same,Plasma SHIV viral load,"SHIV-SF162P3; GS-CA1 150mg/kg group, Week 6, individual animals",200 gag RNA copies per ml
same,Plasma SHIV viral load,"SHIV-SF162P3; GS-CA1 150mg/kg group, Week 7, individual animals",200 gag RNA copies per ml
same,Plasma SHIV viral load,"SHIV-SF162P3; GS-CA1 150mg/kg group, Week 8, individual animals",200 gag RNA copies per ml
same,Plasma SHIV viral load,"SHIV-SF162P3; GS-CA1 150mg/kg group, Week 9, individual animals",200 gag RNA copies per ml
same,Plasma SHIV viral load,"SHIV-SF162P3; GS-CA1 150mg/kg group, Week 10, individual animals",200 gag RNA copies per ml
same,Plasma SHIV viral load,"SHIV-SF162P3; GS-CA1 150mg/kg group, Week 11, individual animals, 150 mg/kg",200 gag RNA copies per ml and 2317 gag RNA copies per ml
same,Plasma SHIV viral load,"SHIV-SF162P3; GS-CA1 150mg/kg group, Week 12, individual animals, 150 mg/kg",200 gag RNA copies per ml and 1251253 gag RNA copies per ml
same,Plasma SHIV viral load,"SHIV-SF162P3; GS-CA1 150mg/kg group, Week 13, individual animals, 150 mg/kg",200 gag RNA copies per ml and 4495324 gag RNA copies per ml and 15543 gag RNA copies per ml
same,Plasma SHIV viral load,"SHIV-SF162P3; GS-CA1 150mg/kg group, Week 14, individual animals, 150 mg/kg",200 gag RNA copies per ml and 192698 gag RNA copies per ml and 302527 gag RNA copies per ml and 14481 gag RNA copies per ml
same,Plasma SHIV viral load,"SHIV-SF162P3; GS-CA1 150mg/kg group, Week 15, individual animals, 150 mg/kg",200 gag RNA copies per ml and 1636073 gag RNA copies per ml and 41252 gag RNA copies per ml and 436449 gag RNA copies per ml
same,Plasma SHIV viral load,"SHIV-SF162P3; GS-CA1 150mg/kg group, Week 16, individual animals, 150 mg/kg",43433 gag RNA copies per ml and 200 gag RNA copies per ml and 144532 gag RNA copies per ml and 37186 gag RNA copies per ml and 15508 gag RNA copies per ml and 62513 gag RNA copies per ml
same,Plasma SHIV viral load,"SHIV-SF162P3; GS-CA1 150mg/kg group, Week 17, individual animals, 150 mg/kg",28104 gag RNA copies per ml and 200 gag RNA copies per ml and 128422 gag RNA copies per ml and 4020 gag RNA copies per ml and 5872 gag RNA copies per ml and 1974 gag RNA copies per ml and 76901 gag RNA copies per ml
same,Plasma SHIV viral load,"SHIV-SF162P3; GS-CA1 150mg/kg group, Week 18, individual animals, 150 mg/kg",8535 gag RNA copies per ml and 200 gag RNA copies per ml and 144695 gag RNA copies per ml and 18625 gag RNA copies per ml and 13017 gag RNA copies per ml and 2250 gag RNA copies per ml and 14905 gag RNA copies per ml
same,Plasma SHIV viral load,"SHIV-SF162P3; GS-CA1 150mg/kg group, Week 19, individual animals, 150 mg/kg",2197 gag RNA copies per ml and 200 gag RNA copies per ml and 23783 gag RNA copies per ml and 733 gag RNA copies per ml and 4607 gag RNA copies per ml and 1586 gag RNA copies per ml and 872 gag RNA copies per ml
same,Plasma SHIV viral load,"SHIV-SF162P3; GS-CA1 150mg/kg group, Week 20, individual animals, 150 mg/kg",200 gag RNA copies per ml and 533 gag RNA copies per ml and 294 gag RNA copies per ml and 1229 gag RNA copies per ml
same,Plasma SHIV viral load,"SHIV-SF162P3; GS-CA1 150mg/kg group, Week 21, individual animals, 150 mg/kg",200 gag RNA copies per ml and 8674 gag RNA copies per ml and 2199 gag RNA copies per ml
same,Plasma SHIV viral load,"SHIV-SF162P3; GS-CA1 150mg/kg group, Week 22, individual animals, 150 mg/kg",200 gag RNA copies per ml and 2557 gag RNA copies per ml and 493 gag RNA copies per ml
same,Plasma SHIV viral load,"SHIV-SF162P3; GS-CA1 150mg/kg group, Week 23, individual animals, 150 mg/kg",200 gag RNA copies per ml and 1150 gag RNA copies per ml and 1806 gag RNA copies per ml and 218 gag RNA copies per ml
same,Plasma SHIV viral load,"SHIV-SF162P3; GS-CA1 150mg/kg group, Week 24, individual animals, 150 mg/kg",200 gag RNA copies per ml and 724 gag RNA copies per ml and 1367 gag RNA copies per ml
same,Plasma SHIV viral load,"SHIV-SF162P3; GS-CA1 300mg/kg group, Week 1, individual animals",200 gag RNA copies per ml
same,Plasma SHIV viral load,"SHIV-SF162P3; GS-CA1 300mg/kg group, Week 2, individual animals",200 gag RNA copies per ml
same,Plasma SHIV viral load,"SHIV-SF162P3; GS-CA1 300mg/kg group, Week 3, individual animals",200 gag RNA copies per ml
same,Plasma SHIV viral load,"SHIV-SF162P3; GS-CA1 300mg/kg group, Week 4, individual animals",200 gag RNA copies per ml
same,Plasma SHIV viral load,"SHIV-SF162P3; GS-CA1 300mg/kg group, Week 5, individual animals",200 gag RNA copies per ml
same,Plasma SHIV viral load,"SHIV-SF162P3; GS-CA1 300mg/kg group, Week 6, individual animals",200 gag RNA copies per ml
same,Plasma SHIV viral load,"SHIV-SF162P3; GS-CA1 300mg/kg group, Week 7, individual animals",200 gag RNA copies per ml
same,Plasma SHIV viral load,"SHIV-SF162P3; GS-CA1 300mg/kg group, Week 8, individual animals",200 gag RNA copies per ml
same,Plasma SHIV viral load,"SHIV-SF162P3; GS-CA1 300mg/kg group, Week 9, individual animals",200 gag RNA copies per ml
same,Plasma SHIV viral load,"SHIV-SF162P3; GS-CA1 300mg/kg group, Week 10, individual animals",200 gag RNA copies per ml
same,Plasma SHIV viral load,"SHIV-SF162P3; GS-CA1 300mg/kg group, Week 11, individual animals",200 gag RNA copies per ml
same,Plasma SHIV viral load,"SHIV-SF162P3; GS-CA1 300mg/kg group, Week 12, individual animals",200 gag RNA copies per ml
same,Plasma SHIV viral load,"SHIV-SF162P3; GS-CA1 300mg/kg group, Week 13, individual animals",200 gag RNA copies per ml
same,Plasma SHIV viral load,"SHIV-SF162P3; GS-CA1 300mg/kg group, Week 14, individual animals",200 gag RNA copies per ml
same,Plasma SHIV viral load,"SHIV-SF162P3; GS-CA1 300mg/kg group, Week 15, individual animals",200 gag RNA copies per ml
same,Plasma SHIV viral load,"SHIV-SF162P3; GS-CA1 300mg/kg group, Week 16, individual animals",200 gag RNA copies per ml
same,Plasma SHIV viral load,"SHIV-SF162P3; GS-CA1 300mg/kg group, Week 17, individual animals, 300 mg/kg",9063 gag RNA copies per ml and 13193 gag RNA copies per ml and 200 gag RNA copies per ml and 13143 gag RNA copies per ml
same,Plasma SHIV viral load,"SHIV-SF162P3; GS-CA1 300mg/kg group, Week 18, individual animals, 300 mg/kg",200 gag RNA copies per ml and 6116 gag RNA copies per ml and 1633235 gag RNA copies per ml
same,Plasma SHIV viral load,"SHIV-SF162P3; GS-CA1 300mg/kg group, Week 19, individual animals, 300 mg/kg",200 gag RNA copies per ml and 123639 gag RNA copies per ml
same,Plasma SHIV viral load,"SHIV-SF162P3; GS-CA1 300mg/kg group, Week 20, individual animals, 300 mg/kg",200 gag RNA copies per ml and 17958 gag RNA copies per ml
same,Plasma SHIV viral load,"SHIV-SF162P3; GS-CA1 300mg/kg group, Week 21, individual animals, 300 mg/kg",200 gag RNA copies per ml
same,Plasma SHIV viral load,"SHIV-SF162P3; GS-CA1 300mg/kg group, Week 22, individual animals, 300 mg/kg",200 gag RNA copies per ml
same,Plasma SHIV viral load,"SHIV-SF162P3; GS-CA1 300mg/kg group, Week 23, individual animals, 300 mg/kg",200 gag RNA copies per ml
same,Plasma SHIV viral load,"SHIV-SF162P3; GS-CA1 300mg/kg group, Week 24, individual animals, 300 mg/kg",200 gag RNA copies per ml
same,peak viral loads vs vehicle-treated control animals,SHIV-SF162P3; infected GS-CA1-treated animals,significantly lower
same,Kd,CA hexamer,0.38 nM
same,Kd,CA monomer,3.9 nM
same,"Predicted Hepatic Clearance, rate, primary human hepatocytes",[1],0.02 L/h/kg
same,Kd,CA pentamer,0.27 nM
same,Inhibits nuclear import (early-stage),HIV capsid,Yes
same,Inhibits proper capsid assembly (late-stage),HIV capsid,Yes
same,Inhibits virus production (late-stage),HIV capsid,Yes
same,"T1/2, human cryopreserved hepatocytes",[2],130 h
same,Kinetic solubility at pH 2.0,[3]; pH 2.0,"<1, <1 μM"
same,Kinetic solubility at pH 7.4,[3]; pH 7.4,"<1, <1 μM"
